The test system of one experiment is VEGF-induced edema. In words: Miles assay, VEGF as agonist. It counts as in vivo, Sprague-Dawley rats. Conditions: VEGF 200 ng/injection site, vehicle 12. Here is the method: A rodent model of vascular edema, the Miles assay, was used to screen compounds for their ability to inhibit VEGF-induced edema. […] Sprague-Dawley rats were first injected IV with vehicle alone or test agent, followed by IV injection of Evans blue dye, followed by intradermal injections of saline and VEGF (200 ng/injection site) along both shaved flanks. […] The ability of test agent to influence vascular edema was tested as above, except that the ability to block edema was tested using either VEGF or histamine as the agonist (200 ng and 10 µg/injection site, respectively).

A short description of experiment [1]: Acute myocardial infarct model, 60 min LAD occlusion followed by reperfusion. It counts as in vivo, Sprague-Dawley rats. To be noted: for Infarct (% AAR, mean ± SEM): 24 hr post-treatment. Here is the method: Myocardial infarcts were created in Sprague-Dawley rats (200-300 g body weight) by a 60 min occlusion of the LAD followed by LAD reperfusion. At 90 min post-reperfusion, either vehicle alone or test agents were injected IV. At 24 hr post-treatment, the ischemic zone (area at-risk, AAR) was delineated by re-ligation of the LAD followed by IV injection of alkali blue dye, after which hearts were sectioned along the short axis and stained using triphenyltetrazolium chloride to delineate viable from infarcted myocardium. Photographic images were then analyzed using morphometric software to calculate infarct area as a percent of the at-risk area.
In one group, 3-[2,4-diamino-6-(3-hydroxyphenyl)pteridin-7-yl] phenol dihydrochloride salt was administered at both 60 and 240 min post-occlusion.

The subject of experiment [2] is CT-26 Colon carcinoma cells. In words: CT-26 colon carcinoma lung metastases model, net tumor burden. It counts as in vivo, Balb/C mice. As for the experimental part:
FIGURE 3 (omitted) illustrates the effect of compounds administered in conjunction with doxorubicin in an in vivo model of metastatic colon cancer (CT-26 adenocarcinoma). Syngeneic CT-26 Colon carcinoma cells were injected I.V. in order to establish lung metastases in Balb/C mice. Beginning 10 days after cells were injected, test agents were given I.P. every 3 days for 3 cycles. Animals were sacrificed at day 20, lungs were collected, and weighed. Net tumor burden is the weight of tumor-bearing lungs minus the average weight of normal control lungs. N=5/group, p<0.02. In the experiment compound A is 6,7-bis(4-hydroxyphenyl)-pteridin-4-ylamine sulfate salt, and compound B is 6,7-diphenyl-pteridine-2,4-diamine.
FIGURE 4 (omitted) illustrates the effects of compounds of the present invention for co-drug therapy with Taxotere as described herein. Syngeneic CT-26 Colon carcinoma cells were used in order to establish lung metastases in Balb/C mice as described above. 6,7-bis(4-hydroxyphenyl)-pteridin-4-ylamine, sulfate salt (compound A) and 6,7-diphenyl-pteridine-2,4-diamine (compound B) were used.
FIGURE 6 (omitted) illustrates the effect of compounds administered in conjunction with docetaxel in the in vivo model of metastatic colon cancer (CT-26 adenocarcinoma) described for FIGURE 4. 2,3-Bis(3,4-dihydroxyphenyl)-pyrido[2,3-b]pyrazin-6-ylamine dihydrochloride salt (compound C) from FIGURE 4 is shown in FIGURE 6 as compound C. N=5/group, p<0.02.
(§1) Syngeneic CT-26 Colon carcinoma cells were injected I. V. in order to establish lung metastases in Balb/C mice. Beginning 10 days after cells were injected, indicated test agents were given I. P. every 3 days for 3 cycles. Animals were sacrificed at day 20, lungs were collected, and weighed. Net tumor burden is the weight of tumor-bearing lungs minus the average weight of normal control lungs. N=5/group, p < 0.02.
as §1, with “FIGURE 4 (omitted) illustrates the effects of the compounds of the present invention for co- drug therapy with docetaxel (Taxoteree-in this example formulated in 12. 5% Cremaphore: 12.5% Ethanol: 75% normal saline) as described herein. Syngeneic” for “Syngeneic”, “I.V.” for “I. V.”
FIGURE 6 (omitted) illustrates the effect of compounds administered in conjunction with docetaxel (Taxoreree-in this example formulated in 12.5% Cremaphore: 12.5% Ethanol:75% normal saline) in the in vivo model of metastatic colon cancer (CT-26 adenocarcinoma) described for FIGURE 4 (omitted). […] N=5/group,p < 0.02.
Similarly, 2,3-bis (4-hydroxyphenyl)-pyrido [2,3-b] pyrazin-6-ylamine dihydrochloride salt inhibited tumor burden alone or with co-drug therapy using docetaxel (Taxotere@~in this example formulated in 12.5% Cremaphore : 12.5% Ethanol:75% normal saline) as described herein. Syngeneic CT-26 Colon carcinoma cells were injected I.V. in order to establish lung metastases in Balb/C mice. Beginning 10 days after cells were injected, indicated test agents were given I.P. every 3 days for 3 cycles. Animals were sacrificed at day 20, lungs were collected, and weighed.

Setting [3] is: 0.1 mg/kg BW IV at 90 min post-reperfusion.
The mark [4] stands for this setting: 0.1 mg/kg BW, versus vehicle of the same study.
The mark [5] stands for this setting: 1.0 mg/kg BW IV at 90 min post-reperfusion.
[6] abbreviates: 1.0 mg/kg BW, versus vehicle of the same study.
The mark [7] stands for this setting: in combination with docetaxel, I.P. every 3 days for 3 cycles, day 20.
The mark [8] stands for this setting: stand alone agent, docetaxel co-drug studies (FIGURES 4 and 6), I.P. every 3 days for 3 cycles, day 20.

Counter-ions that a name gives are not always drawn.

Turning to `Cl.Nc1cncc2nc(-c3ccc(O)c(O)c3)c(-c3ccc(O)c(O)c3)nc12` [2,3-(3,4-Dihydroxyphenyl)-pyrido[3,4-b]pyrazin-8-ylamine], the “Score (scale of 0-12)” value in the experiment with VEGF-induced edema (0.01 mg/kg IV) was 6.
`O=C(Cc1ccc(O)cc1)Nc1ccccc1-c1cc2ccccc2[nH]1` [2-(4-Hydroxy-phenyl)-N-[2-(1H-indol-2-yl)-phenyl]-acetamide]: in the experiment with VEGF-induced edema (1.5 mg/kg IV), the “Score (scale of 0-12)” value is recorded as 2.
As for `Nc1nc(N)c2nc(-c3ccc(O)c(O)c3)c(-c3ccc(O)c(O)c3)nc2n1` [6,7-bis(3,4-dihydroxyphenyl)-pteridine-2,4,-diamine, hydrochloride salt], the “Infarct (% AAR, mean ± SEM)” value in experiment [1] (1.5 mg/kg BW IV at 90 min post-reperfusion) amounted to 36.3 ±6.3 % AAR. Besides, the “% Infarct reduction” value in experiment [1] (1.5 mg/kg BW, versus vehicle of the same study) is 33%.
Regarding `O=C1c2ccccc2C(=O)N1c1ccccc1-c1cc2ccccc2[nH]1` [2-[2-(1H-indol-2-yl)-phenyl]-isoindole-1,3-dione], the “Score (scale of 0-12)” value in the experiment with VEGF-induced edema (1.5 mg/kg IV) worked out at 3.
Same read-out and setting: to `Oc1nc(O)c2nc(-c3ccccc3)c(-c3ccc(Oc4ccc(-c5nc6c(O)nc(O)nc6nc5-c5ccccc5)cc4)cc3)nc2n1` belongs 3.
For `Nc1nc(N)c2nc(CNCc3ccc4ccccc4c3)cnc2n1` [6-{[(Naphthalen-2-ylmethyl)-amino]-methyl}-pteridine-2,4-diamine], the “Score (scale of 0-12)” value with VEGF-induced edema (0.1 mg/kg IV) is on record as 4.
For `Oc1cccc(-c2nc3nc(O)nc(O)c3nc2-c2cccc(O)c2)c1` [6,7-Bis-(3-hydroxy-phenyl)-pteridine-2,4-diol], the “Score (scale of 0-12)” value in the experiment with VEGF-induced edema (1.5 mg/kg IV) is given as 3.
Turning to `Br.Br.Nc1nc(N)c2nc(-c3cccc(O)c3)c(-c3cccc(O)c3)nc2n1` [3-[2,4-Diamino-6-(3-hydroxyphenyl)pteridin-7-yl]phenol dibromide salt], the “Infarct (% AAR, mean ± SEM)” value in experiment [1] (0.5 mg/kg BW IV at 90 min post-reperfusion, Study 5) is reported as 31.6 ± 6.2 % AAR. Besides, the “% Infarct reduction” value in experiment [1] (0.5 mg/kg BW, versus vehicle, Study 5) is listed as 42%.
As to `O=C(Nc1ccccc1-c1cc2ccccc2[nH]1)c1ccc(O)c(O)c1` [3,4-Dihydroxy-N-[2-(1H-indol-2-yl)-phenyl]-benzamide], the “Score (scale of 0-12)” value in the experiment with VEGF-induced edema (0.1 mg/kg IV) worked out at 6.
On to `Cl.Nc1ncnc2nc(-c3ccc(O)c(O)c3)c(-c3ccc(O)c(O)c3)nc12` [4-[4-amino-6-(3,4-dihydroxyphenyl)pteridin-7-yl]benzene-1,2-diol chloride salt], for which the “Infarct (% AAR, mean ± SEM)” value in experiment [1] (setting [3]) was found to be 37.1 ± 2.6 % AAR; in experiment [1] (setting [5]), 40.1 ± 2.0 % AAR. The “% Infarct reduction” value in experiment [1] (setting [4]) is 40%; in experiment [1] (setting [6]) it was 35%.
For the compound `Cl.Cl.Nc1ccc2nc(-c3ccc(O)cc3)c(-c3ccc(O)cc3)nc2n1` [2,3-bis(4-hydroxyphenyl)-pyrido[2,3-b]pyrazin-6-ylamine dihydrochloride salt], the “reduction of tumor burden” value in experiment [2] (setting [7]) is listed as “greater than 78%”; in experiment [2] (setting [8]), 63%.
In the case of `Nc1nc(N)c2nc(-c3ccccc3)c(-c3ccccc3)nc2n1` [compound B, 6,7-diphenyl-pteridine-2,4-diamine], the “reduction of tumor burden” value in experiment [2] (in combination with doxorubicin as printed, FIGURE 4 experiment (docetaxel study)) is “greater than 70%”; in experiment [2] (in combination with doxorubicin, FIGURE 3 experiment, I.P. every 3 days for 3 cycles, day 20), “greater than 65%”; in experiment [2] (stand alone agent, FIGURE 3 experiment (doxorubicin study), I.P. every 3 days for 3 cycles, day 20) it was 35%; in experiment [2] (setting [8]), 20%. Further, the “tumor burden in lungs (photo of representative lung samples)” value in experiment [2] (plus doxorubicin, compared with vehicle (control) lungs, FIGURE 5) was “dramatic reduction in tumor burden”.
As to `Cl.Cl.Nc1ccc2nc(-c3ccc(O)c(O)c3)c(-c3ccc(O)c(O)c3)nc2n1` [compound C, 2,3-Bis(3,4-dihydroxyphenyl)-pyrido[2,3-b]pyrazin-6-ylamine dihydrochloride salt], the “reduction of tumor burden” value in experiment [2] (setting [7]) is on record as “greater than 85%”; in experiment [2] (setting [8]) it was 65%.
Regarding `O=S(=O)(O)c1cc(Nc2ncnc3ncc(-c4ccccc4)nc23)ccc1O` [2-Hydroxy-5-(6-phenyl-pteridin-4-ylamino)-benzenesulfonic acid], the “Score (scale of 0-12)” value with VEGF-induced edema (0.5 mg/kg IV) is on record as 6.
Take `Nc1nc(N)c2nc(-c3ccc(O)cc3)cnc2n1` [4-(2,4-Diamno-pteridin-6-yl)-phenol (sulfate salt)]: the “Score (scale of 0-12)” value in the experiment on VEGF-induced edema (5 mg/kg IV, lower score = greater anti-edema activity) is given as 2.
With `O=C(Cc1ccc(O)c(O)c1)Nc1ccccc1-c1cc2ccccc2[nH]1` [2-(3,4-Dihydroxy-phenyl)-N-[2-(1H-indol-2-yl)-phenyl]-acetamide], the “Score (scale of 0-12)” value with VEGF-induced edema (0.5 mg/kg IV) turned out to be 7.
`O=C(CCc1ccc(O)cc1)Nc1ccccc1-c1cc2ccccc2[nH]1` [3-(4-Hydroxy-phenyl)-N-[2-(1H-indol-2-yl)-phenyl]-propionamide]: the “Score (scale of 0-12)” value in the experiment on VEGF-induced edema (1.5 mg/kg IV) was 2.
In the case of `Nc1nc(N)c2nc(CNCc3ccccn3)cnc2n1` [6-{[(Pyridin-2-ylmethyl)-amino]-methyl}-pteridine-2,4-diamine], the “Score (scale of 0-12)” value in the experiment on VEGF-induced edema (0.1 mg/kg IV) is given as 4.
With `Cl.Oc1ccc(Nc2ncnc3ncc(-c4ccccc4)nc23)c2cccnc12` [5-(6-Phenyl-pteridin-4-ylamino)-quinolin-8-ol hydrochloride salt], the “Score (scale of 0-12)” value in the experiment with VEGF-induced edema (0.5 mg/kg IV) turned out to be 5.
With `O=C(Nc1ccccc1C1Cc2ccccc2N1)c1ccccc1O` (stereo not drawn) [N-[2-(2,3-Dihydro-1H-indol-2-yl)-phenyl]-2-hydroxy-benzamide], the “Score (scale of 0-12)” value in the experiment with VEGF-induced edema (0.5 mg/kg IV) was 5.
For the compound `Cl.Cl.Nc1nc(N)c2nc(-c3cccc(O)c3)c(-c3cccc(O)c3)nc2n1` [3-[2,4-diamino-6-(3-hydroxyphenyl)pteridin-7-yl] phenol dihydrochloride salt], the “Infarct (% AAR, mean ± SEM)” value in experiment [1] (setting [3]) is listed as 37.7 ± 5.8 % AAR; in experiment [1] (setting [5]), 46.4 ± 2.6 % AAR. In addition, the “% Infarct reduction” value is listed as 30% in experiment [1] (setting [4]) and “Not significant” in experiment [1] (setting [6]). The “Score (scale of 0-12)” value was 3 in the experiment on VEGF-induced edema (0.01 mg/kg IV), 4 in the experiment on VEGF-induced edema (0.1 mg/kg IV) and 4 in the experiment with VEGF-induced edema (1 mg/kg IV).
On to `Cl.Nc1ncnc2nc(-c3cccc(O)c3)c(-c3cccc(O)c3)nc12` [6,7-Bis(3-hydroxyphenyl)-pteridine-4-ylamine hydrochloride salt], for which the “Infarct (% AAR, mean ± SEM)” value in experiment [1] (setting [3]) worked out at 39.1 ± 4.2 % AAR; in experiment [1] (setting [5]), 39.1 ± 7.5 % AAR. Also, the “% Infarct reduction” value in experiment [1] (setting [4]) and in experiment [1] (setting [6]) was 37% in each case.
